# Laboratory results published in patent publication US20230019619A1, “TREATMENT OF A DISEASE OF THE GASTROINTESTINAL TRACT WITH A TLR MODULATOR” (BIORA THERAPEUTICS, INC., priority 2016, published 2023).
# Assay: Tacrolimus tissue pharmacokinetics, oral versus intra-cecal ingestible device delivery
# Format: in vivo, Yorkshire-Cross farm swine
# Conditions: swine, intra-cecal as compared to oral, 12 hours post-dose
# Method: The primary objective of this study was to compare the tissue, plasma, rectal sample, and GI content pharmacokinetics of tacrolimus through oral versus intra-cecal ingestible device delivery in normal Yorkshire-Cross farm swine.
# No further randomization procedure was employed.
# Animals in Group 1 received an ingestible device containing 0.8 mL of vehicle solution (80% alcohol, 20% HCO-60). Animals in Group 2 received orally […] liquid formulation of tacrolimus at 4 mg/0.8 mL per animal (Prograf: 5 mg/mL). Animals in Group 3 received intra-cecally an ingestible device containing tacrolimus at 1 mg in 0.8 mL per ingestible device. […]
# Approximately 200˜400 mg of rectal content were collected, if available, with a fecal swab (Copan Diagnostics Nylon Flocked Dry Swabs, 502CS01). The fecal swab was pre-weighed and weighed after collection in the collection tube (Sterile Tube and Cap No Media, PFPM913S), and the sample weight was recorded. […]
# For tissue necropsy, small intestine fluid and cecal fluid were collected separately from all the animals into two separate square plastic bottles, and stored at −20° C. The length and diameter of the cecum and the colon was measured from one animal in each group and recorded for reference. […] All samples were weighed, and the tissue sample weights were recorded. […]
smiles,measurement,value
C=CC[C@@H]1/C=C(\C)C[C@H](C)C[C@H](OC)[C@H]2O[C@@](O)(C(=O)C(=O)N3CCCC[C@H]3C(=O)O[C@H](/C(C)=C/[C@@H]3CC[C@@H](O)[C@H](OC)C3)[C@H](C)[C@@H](O)CC1=O)[C@H](C)C[C@@H]2OC [tacrolimus],mean concentration in the cecum tissue and the proximate colon tissue (FIG. 76),higher
